# Assay results from patent publication US20230167088A1, “1-PYRAZINYLPYRAZOLYL-3-OXYALKYL ACIDS AND THEIR DERIVATIVES, AND THEIR USE FOR CONTROL OF UNDESIRED PLANT GROWTH” (BAYER AKTIENGESELLSCHAFT, priority 2020, published 2023).
# Columns and labels:
# ALOMY [1] = assay: Herbicidal post-emergence action 1a (greenhouse pots, visual rating); format: in vivo, Alopecurus myosuroides; conditions: rated visually about 3 weeks after treatment, 100% = plants have died, 0% = like control plants
# Summary of the method: (§1)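 Visual scoring versus untreated plants (100% = plants dead, 0% = as control) followed roughly 3 weeks in the greenhouse after treatment. Plants grown in sandy loam pots had been sprayed on green parts at the one-leaf stage, 2–3 weeks post-sowing, with aqueous WP/EC preparations containing 0.5% additive, 600 l/ha, at 320 and/or 80 g/ha.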
# LOLRI [2] = assay: as above; format: in vivo, Lolium rigidum; conditions: rated visually about 3 weeks after treatment, 100% = plants have died, 0% = like control plants
# Summary of the method: as §1
# AMARE [3] = assay: as above; format: in vivo, Amaranthus retroflexus; conditions: visual rating about 3 weeks after treatment
# Summary of the method: as §1
# MATIN [4] = assay: as above; format: in vivo, Matricaria inodora; conditions: visual rating about 3 weeks after treatment
# Summary of the method: as §1
# PHBPU [5] = assay: as above; format: in vivo, Pharbitis purpurea; conditions: visual rating about 3 weeks after treatment
# Summary of the method: as §1
# POLCO [6] = assay: as above; format: in vivo, Polygonum convolvulus; conditions: visual rating about 3 weeks after treatment
# Summary of the method: as §1
# STEME [7] = assay: as above; format: in vivo, Stellaria media; conditions: Dosage 320 g/ha; rated visually about 3 weeks after treatment; 100% = plants have died, 0% = like control plants
# Protocol: [table] a) Seeds of monocotyledonous and dicotyledonous weeds and crop plants are placed in sandy loam in plastic or organic plant pots, covered with soil and cultivated in a greenhouse under controlled growth conditions. 2 to 3 weeks after sowing, the test plants are treated at the one-leaf stage. The compounds of the invention, formulated in the form of wettable powders (WP) or as emulsion concentrates (EC), are then sprayed onto the green parts of the plants as aqueous suspension or emulsion with addition of 0.5% additive at a water application rate of 600 1/ha (converted). After the test plants have been kept in the greenhouse under optimum growth conditions for about 3 weeks, the activity of the preparations is rated visually in comparison to untreated controls. For example, 100% activity=the plants have died, 0% activity=like control plants. Tables A1 to A15 below show the effects of selected compounds of the general formula (I) according to Tables 1 and 2 on various harmful plants and an application rate corresponding to 320 g/ha and/or 80 g/ha, which were obtained by the experimental procedure mentioned above.
# VIOTR = assay: as above; format: in vivo, Viola tricolor; conditions: dosage 320 g/ha, visual rating about 3 weeks after treatment
# Summary of the method: as §1
# VERPE [8] = assay: as above; format: in vivo, Veronica persica; conditions: visual rating about 3 weeks after treatment
# Summary of the method: as §1
# POAAN [9] = assay: Herbicidal post-emergence action 1b (twin sowing, 1280 g/ha); format: in vivo, Poa annua; conditions: dosage 1280 g/ha, visual rating about 3 weeks after treatment
# Summary of the method: (§2)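 Greenhouse weed pairs (mono- with dicotyledonous) were treated 2–3 weeks after sowing, at one leaf, using an aqueous spray at 600 L/ha carrying 0.5% additive. Percent activity, judged by eye against untreated plants, was recorded roughly 3 weeks post-application.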
# MATIN [10] = assay: as above; format: in vivo, Matricaria inodora; conditions: dosage 1280 g/ha, visual rating about 3 weeks after treatment
# Summary of the method: as §2
# STEME [11] = assay: as above; format: in vivo, Stellaria media; conditions: dosage 1280 g/ha, visual rating about 3 weeks after treatment
# Summary of the method: as §2
# ALOMY [12] = assay: Herbicidal pre-emergence action 2a (greenhouse pots, visual scoring); format: in vivo, Alopecurus myosuroides; conditions: dosage 320 g/ha, visual scoring after about 3 weeks
# Summary of the method: (§3)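 Dose levels were 320 g/ha and/or 80 g/ha, delivered as an aqueous spray of wettable powder or emulsion concentrate plus 0.5% additive onto soil over sown seeds. Plants grew under good greenhouse conditions for about 3 weeks before visual percentage rating versus untreated pots.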
# DIGSA = assay: as above; format: in vivo, Digitaria sanguinalis; conditions: dosage 320 g/ha, visual scoring after about 3 weeks
# Summary of the method: as §3
# LOLRI [13] = assay: as above; format: in vivo, Lolium rigidum; conditions: dosage 320 g/ha, visual scoring after about 3 weeks vs untreated controls
# Summary of the method: as §3
# AMARE [14] = assay: as above; format: in vivo, Amaranthus retroflexus; conditions: dosage 320 g/ha, visual scoring after about 3 weeks vs untreated controls
# Summary of the method: as §3
# MATIN [15] = assay: as above; format: in vivo, Matricaria inodora; conditions: dosage 320 g/ha, visual scoring after about 3 weeks vs untreated controls
# Summary of the method: as §3
# POLCO [16] = assay: as above; format: in vivo, Polygonum convolvulus; conditions: dosage 320 g/ha, visual scoring after about 3 weeks vs untreated controls
# Summary of the method: as §3
# STEME [17] = assay: as above; format: in vivo, Stellaria media; conditions: dosage 320 g/ha, visual scoring after about 3 weeks vs untreated controls
# Source text: (§4) [table] a) Seeds of monocotyledonous and dicotyledonous weed plants and crop plants are placed in plastic or organic plant pots and covered with soil. The compounds of the invention, formulated in the form of wettable powders (WP) or as emulsion concentrates (EC), are then applied onto the surface of the covering soil as aqueous suspension or emulsion with addition of 0.5% additive at a water application rate of 600 1/ha (converted). After the treatment, the pots are placed in a greenhouse and kept under good growth conditions for the trial plants. After about 3 weeks, the effect of the preparations is scored visually in comparison with untreated controls as percentages. For example, 100% activity=the plants have died, 0% activity=like control plants. Tables B1 to B15 below show the effects of selected compounds of the general formula (I) according to Tables 1 and 2 on various harmful plants and an application rate corresponding to 320 g/ha and/or 80 g/ha, which were obtained by the experimental procedure mentioned above.
# VERPE [18] = assay: as above; format: in vivo, Veronica persica; conditions: dosage 320 g/ha, visual scoring after about 3 weeks vs untreated controls
# Summary of the method: as §3
# POAAN [19] = assay: Herbicidal pre-emergence action 2b (doubly sown, 1280 g/ha); format: in vivo, Poa annua; conditions: doubly sown pots, dosage 1280 g/ha, visual scoring after about 3 weeks
# Summary of the method: (§5)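 Compounds were sprayed pre-emergence as wettable powders or emulsion concentrates onto soil covering freshly sown weed seeds, two species per pot. Percent activity was judged by eye roughly 3 weeks later versus untreated plants.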
# ECHCG [20] = assay: as above; format: in vivo, Echinochloa crus-galli; conditions: doubly sown pots, dosage 1280 g/ha, visual scoring after about 3 weeks
# Summary of the method: as §5
# AMARE [21] = assay: as above; format: in vivo, Amaranthus retroflexus; conditions: doubly sown pots, dosage 1280 g/ha, visual scoring after about 3 weeks
# Summary of the method: as §5
# MATIN [22] = assay: as above; format: in vivo, Matricaria inodora; conditions: doubly sown pots, dosage 1280 g/ha, visual scoring after about 3 weeks
# Summary of the method: as §5
# STEME [23] = assay: as above; format: in vivo, Stellaria media; conditions: doubly sown pots, dosage 1280 g/ha, visual scoring after about 3 weeks
# Summary of the method: as §5
# AVEFA [24] = assay: Herbicidal post-emergence action 1a (greenhouse pots, visual rating); format: in vivo, Avena fatua; conditions: rated visually about 3 weeks after treatment, 100% = plants have died, 0% = like control plants
# Summary of the method: as §1
# ECHCG [25] = assay: as above; format: in vivo, Echinochloa crus-galli; conditions: rated visually about 3 weeks after treatment, 100% = plants have died, 0% = like control plants
# Summary of the method: as §1
# SETVI [26] = assay: as above; format: in vivo, Setaria viridis; conditions: rated visually about 3 weeks after treatment, 100% = plants have died, 0% = like control plants
# Summary of the method: as §1
# ABUTH [27] = assay: as above; format: in vivo, Abutilon theophrasti; conditions: visual rating about 3 weeks after treatment
# Summary of the method: as §1
# AVEFA [28] = assay: Herbicidal pre-emergence action 2a (greenhouse pots, visual scoring); format: in vivo, Avena fatua; conditions: dosage 320 g/ha, visual scoring after about 3 weeks
# Summary of the method: as §3
# ECHCG [29] = assay: as above; format: in vivo, Echinochloa crus-galli; conditions: dosage 320 g/ha, visual scoring after about 3 weeks
# Summary of the method: as §3
# SETVI [30] = assay: as above; format: in vivo, Setaria viridis; conditions: dosage 320 g/ha, visual scoring after about 3 weeks vs untreated controls
# Summary of the method: as §3
# ABUTH [31] = assay: as above; format: in vivo, Abutilon theophrasti; conditions: dosage 320 g/ha, visual scoring after about 3 weeks vs untreated controls
# Source text: as §4
# PHBPU [32] = assay: as above; format: in vivo, Pharbitis purpurea; conditions: dosage 320 g/ha, visual scoring after about 3 weeks vs untreated controls
# Summary of the method: as §3
Compound,Post-emergence action against ALOMY in % (ALOMY [1]; Dosage 320 g/ha),Post-emergence action against LOLRI in % (LOLRI [2]; Dosage 320 g/ha),Post-emergence action against AMARE in % (AMARE [3]; dosage 80 g/ha),Post-emergence action against AMARE in % (AMARE [3]; dosage 320 g/ha),Post-emergence action against MATIN in % (MATIN [4]; dosage 80 g/ha),Post-emergence action against MATIN in % (MATIN [4]; dosage 320 g/ha),Post-emergence action against PHBPU in % (PHBPU [5]; dosage 80 g/ha),Post-emergence action against PHBPU in % (PHBPU [5]; dosage 320 g/ha),Post-emergence action against POLCO in % (POLCO [6]; dosage 80 g/ha),Post-emergence action against POLCO in % (POLCO [6]; dosage 320 g/ha),Post-emergence action against VERPE in % (VERPE [8]; dosage 320 g/ha),Pre-emergence action against ALOMY in % (ALOMY [12]),Pre-emergence action against LOLRI in % (LOLRI [13]),Pre-emergence action against AMARE in % (AMARE [14]),Pre-emergence action against MATIN in % (MATIN [15]),Pre-emergence action against POLCO in % (POLCO [16]),Pre-emergence action against VERPE in % (VERPE [18]),other results
O=C(O)COc1nn(-c2cnccn2)c(-c2cccc(F)c2)c1Br [Example I-04],90%,80%,90%,90%,80%,90%,80%,80%,80%,90%,80%,80%,90%,100%,90%,90%,90%,Post-emergence action against STEME in % (STEME [7]): 80%; Post-emergence action against VIOTR in % (VIOTR): 80%; Post-emergence action at 1280 g/ha against POAAN in % (POAAN [9]): 90%; Post-emergence action at 1280 g/ha against MATIN in % (MATIN [10]): 90%; Post-emergence action at 1280 g/ha against STEME in % (STEME [11]): 100%; Pre-emergence action against DIGSA in % (DIGSA): 90%; Pre-emergence action against STEME in % (STEME [17]): 90%; Pre-emergence action at 1280 g/ha against POAAN in % (POAAN [19]): 100%; Pre-emergence action at 1280 g/ha against ECHCG in % (ECHCG [20]): 100%; Pre-emergence action at 1280 g/ha against AMARE in % (AMARE [21]): 100%; Pre-emergence action at 1280 g/ha against MATIN in % (MATIN [22]): 100%; Pre-emergence action at 1280 g/ha against STEME in % (STEME [23]): 100%
COC(=O)[C@@H](C)Oc1nn(-c2cnccn2)c(-c2cncc(F)c2)c1Cl [Example I-95],100%,90%,90%,90%,80%,90%,90%,90%,90%,90%,90%,100%,100%,100%,100%,100%,100%,Post-emergence action against ALOMY in % (ALOMY [1]; Dosage 80 g/ha): 100%; Post-emergence action against AVEFA in % (AVEFA [24]; Dosage 80 g/ha): 80%; Post-emergence action against AVEFA in % (AVEFA [24]; Dosage 320 g/ha): 90%; Post-emergence action against ECHCG in % (ECHCG [25]; Dosage 80 g/ha): 90%; Post-emergence action against ECHCG in % (ECHCG [25]; Dosage 320 g/ha): 90%; Post-emergence action against LOLRI in % (LOLRI [2]; Dosage 80 g/ha): 90%; Post-emergence action against SETVI in % (SETVI [26]; Dosage 80 g/ha): 90%; Post-emergence action against SETVI in % (SETVI [26]; Dosage 320 g/ha): 90%; Post-emergence action against ABUTH in % (ABUTH [27]; dosage 80 g/ha): 90%; Post-emergence action against ABUTH in % (ABUTH [27]; dosage 320 g/ha): 90%; Post-emergence action against VERPE in % (VERPE [8]; dosage 80 g/ha): 90%; Pre-emergence action against AVEFA in % (AVEFA [28]): 90%; Pre-emergence action against ECHCG in % (ECHCG [29]): 100%; Pre-emergence action against SETVI in % (SETVI [30]): 100%; Pre-emergence action against ABUTH in % (ABUTH [31]): 90%; Pre-emergence action against PHBPU in % (PHBPU [32]): 90%
